# Experimental data: the supplement of paper PMC10307832
# Assays:
# Assay in all cases: relative viability (nuclei count vs DMSO), 5 days (fraction); higher = more cells survive
# [1] = compound: CC1(C)CCC(CN2CCN(c3ccc(C(=O)NS(=O)(=O)c4ccc(NCC5CCOCC5)c([N+](=O)[O-])c4)c(Oc4cnc5[nH]ccc5c4)c3)CC2)=C(c2ccc(Cl)cc2)C1 [Venetoclax] + Cc1cc(Nc2cc(N3CCN(C)CC3)nc(Sc3ccc(NC(=O)C4CC4)cc3)n2)n[nH]1 [Tozasertib] (partner 0.1 µM)
# How it was run: (§1)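 A single step with final 0.05% Triton X-100, 1% formaldehyde and 1 ug/ml Hoechst fixed the cells and stained nuclei 5 days after treatment. Lung cancer cell lines in 1536-well plates had been treated by pin tool the day after seeding with one drug alone or a fixed anchor-drug dose plus five library-drug doses (not always all listed) in √10 steps, and nuclei were counted on 4× images. Relative viability is the ratio of nuclei in treated wells to nuclei in vehicle wells, taken as the median of duplicate plates.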
# [2] = compound: CC1(C)CCC(CN2CCN(c3ccc(C(=O)NS(=O)(=O)c4ccc(NCC5CCOCC5)c([N+](=O)[O-])c4)c(Oc4cnc5[nH]ccc5c4)c3)CC2)=C(c2ccc(Cl)cc2)C1 [Venetoclax] + CS(=O)(=O)N1CCN(Cc2cc3nc(-c4cccc5[nH]ncc45)nc(N4CCOCC4)c3s2)CC1 [Pictilisib] (partner 1 µM)
# How it was run: as §1
# [3] = compound: CC1(C)CCC(CN2CCN(c3ccc(C(=O)NS(=O)(=O)c4ccc(NCC5CCOCC5)c([N+](=O)[O-])c4)c(Oc4cnc5[nH]ccc5c4)c3)CC2)=C(c2ccc(Cl)cc2)C1 [Venetoclax] + C[C@]1(O)C[C@@H](c2nc(-c3ccc4ccc(-c5ccccc5)nc4c3)c3c(N)nccn32)C1 [Linsitinib] (partner 1 µM)
# How it was run: as §1
# [4] = compound: CC1(C)CCC(CN2CCN(c3ccc(C(=O)NS(=O)(=O)c4ccc(NCC5CCOCC5)c([N+](=O)[O-])c4)c(Oc4cnc5[nH]ccc5c4)c3)CC2)=C(c2ccc(Cl)cc2)C1 [Venetoclax] + COc1cccc2cc(-c3nc([C@H]4CC[C@H](C(=O)O)CC4)n4ncnc(N)c34)[nH]c12 [OSI-027] (partner 0.5 µM)
# How it was run: as §1
Cell Line,relative viability ([1]; first compound 0.01 µM),relative viability ([1]; first compound 0.03162 µM),relative viability ([1]; first compound 0.1 µM),relative viability ([1]; first compound 0.3162 µM),relative viability ([1]; first compound 1 µM),relative viability ([2]; first compound 0.01 µM),relative viability ([2]; first compound 0.03162 µM),relative viability ([2]; first compound 0.1 µM),relative viability ([2]; first compound 0.3162 µM),relative viability ([2]; first compound 1 µM),relative viability ([3]; first compound 0.01 µM),relative viability ([3]; first compound 0.03162 µM),relative viability ([3]; first compound 0.1 µM),relative viability ([3]; first compound 0.3162 µM),relative viability ([3]; first compound 1 µM),relative viability ([4]; first compound 0.01 µM),relative viability ([4]; first compound 0.03162 µM),relative viability ([4]; first compound 0.1 µM),relative viability ([4]; first compound 0.3162 µM),relative viability ([4]; first compound 1 µM)
LOU-NH91,0.652,0.697,0.576,0.684,0.604,0.515,0.565,0.54,0.523,0.53,0.887,0.986,0.882,0.975,0.895,0.674,0.762,0.726,0.755,0.673
LU99A,0.28,0.26,0.234,0.295,0.321,0.321,0.357,0.362,0.297,0.319,0.482,0.604,0.505,0.56,0.55,0.288,0.321,0.316,0.338,0.295
LXF-289,0.217,0.218,0.187,0.216,0.213,0.718,0.739,0.795,0.771,0.762,0.973,0.955,0.895,0.932,0.856,0.753,0.857,0.881,0.771,0.623
NCI-H23,0.492,0.347,0.368,0.323,0.418,0.595,0.501,0.381,0.479,0.508,0.646,0.648,0.527,0.467,0.533,0.592,0.625,0.525,0.683,0.439
NCI-H322M,0.495,0.477,0.477,0.555,0.493,0.558,0.511,0.488,0.532,0.487,0.913,0.916,0.889,0.891,0.852,0.667,0.575,0.605,0.564,0.48
NCI-H358,0.117,0.0943,0.115,0.0994,0.102,0.323,0.364,0.3,0.327,0.363,0.754,0.812,0.624,0.679,0.702,0.747,0.841,0.697,0.83,0.695
NCI-H441,0.587,0.603,0.86,0.676,0.507,0.611,0.479,0.431,0.46,0.444,0.445,0.716,0.568,0.482,0.511,0.569,0.566,0.608,0.575,0.553
NCI-H460,0.473,0.387,0.126,0.266,0.25,0.394,0.43,0.316,0.385,0.367,0.827,0.829,0.665,0.632,0.726,0.681,0.592,0.585,0.62,0.515
NCI-H520,0.413,0.406,0.434,0.443,0.403,0.304,0.351,0.283,0.257,0.286,1.04,0.935,0.911,0.969,0.902,0.262,0.287,0.209,0.253,0.217
NCI-H596,1.05,0.74,0.966,0.862,0.847,0.402,0.408,0.354,0.391,0.364,1.03,1.09,1.1,1.13,1.11,0.704,0.748,0.694,0.748,0.587
NCI-H647,0.228,0.225,0.361,0.22,0.262,0.443,0.386,0.435,0.439,0.45,0.996,1.15,–,1.4,1.02,0.69,0.769,0.625,0.589,0.509
NCI-H650,0.682,0.719,0.685,0.697,0.674,0.805,0.855,–,0.842,0.797,0.912,0.843,–,1.04,0.754,0.533,0.552,0.561,0.528,0.459
NCI-H661,0.353,0.335,0.313,0.345,0.333,0.466,0.446,0.455,0.415,0.347,0.676,0.662,0.551,0.703,0.567,0.682,0.789,0.705,0.681,0.617
NCI-H727,0.765,0.61,0.496,0.58,0.58,0.354,0.419,0.404,0.37,0.398,0.334,0.344,0.201,0.293,0.296,0.68,0.762,0.525,0.63,0.723
NCI-H838,0.254,0.246,0.303,0.238,0.239,0.661,0.48,0.474,0.465,0.534,1.11,1.03,1.01,1.03,0.938,0.493,0.405,0.37,0.377,0.435
NCI-H1355,0.548,0.62,0.482,0.549,0.42,0.493,0.547,0.377,0.467,0.404,0.812,0.814,0.778,0.792,0.753,0.409,0.5,0.38,0.386,0.355
